Values quoted from earlier work as cited in US10332616B2, “Movable type method applied to protein-ligand binding” (University of Florida Research Foundation, Inc., priority 2013, dated 2019).
Read-outs that look alike come from different tables or passages of the source.

Conditions: for Exp. ΔGsolv: experimental solvation free energy
[1] = test set with 372 neutral compounds

Row | Compound | Exp. ΔGsolv [1] [kJ/mol] | Exp. ΔGsolv (neutral compounds test set) [kJ/mol] | also measured
1 | ClCC(Cl)Cl [Compound 0166tri] | -8.16 | – | –
2 | CCCCl [Compound 0167chla] | -1.13 | – | –
3 | CC(C)Cl [Compound 0168chl] | -1.05 | – | –
4 | C=CCl [Compound 0169chl] | -2.47 | – | –
5 | C=CCCl [Compound 0170chl] | -2.38 | – | –
6 | Cl/C=C\Cl [Compound 0171Zdi] | -4.9 | – | –
7 | Cl/C=C/Cl [Compound 0172Edi] | -3.18 | – | –
8 | ClC=C(Cl)Cl [Compound 0173tri] | -1.63 | – | –
9 | Clc1ccccc1 [Compound 0174chl] | -4.69 | – | –
10 | Clc1ccccc1Cl [Compound 0175odi] | -5.69 | – | –
11 | Clc1ccc(Cl)cc1 [Compound 0176pdi] | -4.23 | – | –
12 | CBr [Compound 0177bro] | -3.43 | – | –
13 | BrCBr [Compound 0178dib] | -8.83 | – | –
14 | BrC(Br)Br [Compound 0179tri] | -8.28 | – | –
15 | CCBr [Compound 0180bro] | -2.9 | – | –
16 | CCCBr [Compound 0182bro] | -2.34 | – | –
17 | CC(C)Br [Compound 0183bro] | -2.01 | – | –
18 | CCCCBr [Compound 0184bro] | -1.72 | – | –
19 | CCCCCBr [Compound 0185bro] | -0.33 | – | –
20 | Brc1ccccc1 [Compound 0186bro] | -6.11 | – | –
21 | Brc1ccc(Br)cc1 [Compound 0187dib] | -9.62 | – | –
22 | FC(F)(F)Br [Compound 0197bro] | 7.49 | – | –

Row | Compound | Exp. ΔGsolv [1] [kJ/mol] | Exp. ΔGsolv (neutral compounds test set) [kJ/mol] | also measured
23 | FCCl [Compound 0198chl] | -3.22 | – | –
24 | FC(F)Cl [Compound 0199chl] | -2.1 | – | –
25 | FC(F)(F)F [Compound 0200tet] | 13.2 | – | –
26 | FC(F)(F)C(Cl)Br (stereo not shown) [Compound 0201bro] | -0.544 | – | –
27 | ClCCBr [Compound 0202bro] | -8.16 | – | –
28 | FC(Br)C(F)(F)F (stereo not shown) [Compound 0203bro] | 2.18 | – | –
29 | ClC(Cl)=C(Cl)Cl [Compound 0204tet] | 0.21 | – | –
30 | FC(F)(F)CCl [Compound 0205chl] | 0.25 | – | –
31 | FC(F)(Cl)C(F)(Cl)Cl [Compound 0206tri] | 7.41 | – | –
32 | OCC(F)(F)F [Compound 0207tri] | – | -18 | –
33 | FC(F)OC(Cl)C(F)(F)F (stereo not shown) [Compound 0209chl] | – | 0.46 | –
34 | CC(O)C(F)(F)F (stereo not shown) [Compound 0211tri] | – | -17.4 | –
35 | OC(C(F)(F)F)C(F)(F)F [Compound 0212hex] | – | -15.8 | –
36 | C=COCC(F)(F)F [Compound 0214tri] | – | -0.502 | –
37 | COP(=O)(OC)OC [Compound 0220tri] | – | -36.4 | –
38 | CCOP(=O)(OCC)OCC [Compound 0221tri] | – | -32.6 | –
39 | CCSSCC [Compound 0223die] | – | -6.82 | –
40 | C1CCNCC1 [Compound 0225pipa] | – | -21.4 | –
41 | CN1CCOCC1 [Compound 0227Nme] | – | -26.5 | –
42 | CN [Compound 0228met] | – | -19.1 | –
43 | CCc1cnccn1 [Compound 0230eth] | -23.1 | – | –
44 | CC(N)=O [Compound 0233ethb] | – | -40.6 | –

Row | Compound | Exp. ΔGsolv [1] [kJ/mol] | Exp. ΔGsolv (neutral compounds test set) [kJ/mol] | also measured
45 | CNC(C)=O [Compound 0234ENmb] | – | -41.8 | –
46 | CNC(C)=O [Compound 0235ZNmb] | – | -41.8 | –
47 | CCCCCCCC=O [Compound 0237oct] | – | -9.58 | –
48 | CCCCCCCC(=O)OC [Compound 0238met] | – | -8.54 | –
49 | COC(=O)c1ccccc1 [Compound 0240met] | – | -16.4 | –
50 | CC(C)OC(C)C [Compound 0242dii] | – | -2.22 | –
51 | C1CCOCC1 [Compound 0244tet] | – | -13.1 | –
52 | c1ccsc1 [Compound 0245thi] | – | -5.94 | –
53 | CCOc1ccccc1 [Compound 0246eth] | – | -9.29 | –
54 | CN(C)C(=O)Nc1ccccc1 [Compound 0401amia] | – | -40.3 | –
55 | Cn1cnc2c(N)ncnc21 [Compound 0402adn] | -56.9 | – | –
56 | FC(F)(F)C(F)(F)F [Compound 0405hex] | 16.5 | – | –
57 | FC(F)(F)C(F)(F)C(F)(F)F [Compound 0406oct] | 17.9 | – | –
58 | ClCC(Cl)(Cl)Cl [Compound 0407tet] | -4.81 | – | –
59 | ClC(Cl)(Cl)C(Cl)(Cl)Cl [Compound 0408hex] | -5.86 | – | –
60 | CCC(C)Cl (stereo not shown) [Compound 0409clb] | 0.29 | – | –
61 | CCCCCCl [Compound 0410clp] | 0.29 | – | –
62 | CCCC(C)Cl (stereo not shown) [Compound 0411chp] | 0.29 | – | –
63 | Cc1ccccc1Cl [Compound 0413clt] | -4.81 | – | –
64 | Clc1ccccc1-c1ccccc1Cl [Compound 0414dcl] | -11.4 | – | –
65 | Clc1cccc(-c2ccccc2)c1Cl [Compound 0415dcl] | -10.3 | – | –
66 | Clc1ccccc1-c1cccc(Cl)c1Cl [Compound 0416dcl] | -8.33 | – | –

Row | Compound | Exp. ΔGsolv [1] [kJ/mol] | Exp. ΔGsolv (neutral compounds test set) [kJ/mol] | also measured
67 | C=CCBr [Compound 0417brp] | -3.6 | – | –
68 | CC(C)CBr [Compound 0418bri] | -0.13 | – | –
69 | Cc1ccc(Br)cc1 [Compound 0420pbr] | -5.82 | – | –
70 | FC(F)(Cl)Cl [Compound 0421dfl] | 7.07 | – | –
71 | FC(Cl)(Cl)Cl [Compound 0422ftc] | 3.43 | – | –
72 | ClC(Cl)(Cl)Br [Compound 0423brt] | -3.89 | – | –
73 | FC(F)(F)C(F)(F)Cl [Compound 0424clp] | 12 | – | –
74 | N#Cc1cc(Br)c(O)c(Br)c1 [Compound 0425dbr] | – | -38 | –
75 | N#Cc1c(Cl)cccc1Cl [Compound 0426dcl] | – | -21.8 | –
76 | NC(=S)c1c(Cl)cccc1Cl [Compound 0427dcl] | -45.23 | – | –
77 | Nc1c(Cl)c(Cl)nc(C(=O)O)c1Cl [Compound 0428ami] | – | -50.04 | –
78 | COP(=O)(OC)OC=C(Cl)Cl [Compound 0433pho] | -27.7 | – | –
79 | CCOP(=S)(OCC)Oc1ccc(Cl)cc1Cl [Compound 0438pho] | – | -16.2 | –
80 | COP(=S)(OC)Oc1ccc([N+](=O)[O-])cc1 [Compound 0441pho] | – | -31.9 | –
81 | CCCSP(=O)(OCC)Oc1ccc(Br)cc1Cl (stereo not shown) [Compound 0442pho] | – | -17.1 | –
82 | COP(=S)(OC)Oc1cc(Cl)c(Cl)cc1Cl [Compound 0444pho] | -21.2 | – | –
83 | COP(=S)(OC)Oc1cc(Cl)c(Br)cc1Cl [Compound 0445pho] | -23.8 | – | –
84 | C[N+](=O)[O-] [Compound 0506nit] | -16.5 | – | –
85 | CCOOCC [ethylperoxide, reference compound] | – | – | ΔGsol experimental value (neutral molecule): -22.3 kJ/mol
